# Measured values from patent US9322066B2, “Predictors for cancer treatment” (priority 2011, dated 2016).
# Tested on: relapsed or refractory, rituximab-naive or -sensitive follicular B-cell NHL
# Experiment: Treatment free interval, Vc-R vs rituximab study, by biomarker
# Format: in vivo, human
# Set-up: Treatment Free Interval, Median: unit not given here
# From the text: Non-Hodgkin lymphoma (NHL) encompasses several unique malignant lymphoid disease entities that vary in clinical behavior, morphologic appearance, immunologic, and molecular phenotype. […] A randomized, open-label, active-controlled, multicenter, multinational, prospective study to compare the efficacy and safety of the combination of bortezomib and rituximab (Vc-R) to single-agent rituximab in subjects who have relapsed or refractory, rituximab-naive or -sensitive follicular B-cell NHL was performed.
# Subjects were centrally randomized to Treatment Groups A (Vc-R) or B (rituximab) in a 1:1 ratio taking into account the following stratification factors: • Follicular Lymphoma International Prognostic Index (FLIPI) score (low [0 or 1 factor], intermediate [2 factors], high [≧3 factors]); • Prior rituximab therapy (yes, no); • Time since last dose of anti-lymphoma therapy (≦1 year, >1 year); • Region (United States/Canada, European Union, Rest of World).
# The following clinical endpoints were included in the analysis within each treatment group and an overall comparison was made with the biomarker-related endpoints: Progression-free survival, defined as the interval between the date of randomization and the date of progressive disease (PD) or death, whichever is first reported in the ITT population; overall survival; overall response rate (complete response [CR]+CR unconfirmed [CRu]+partial response [PR]); overall CR rate (CR+CRu); duration of response; time to next anti-lymphoma therapy; and treatment free interval.
# [1] = P65 % NUCLEAR STAINING: 0, 1 Prior Line of Therapy, IRC Review
# [2] = P65 % NUCLEAR STAINING: ≦5%, 2 Prior Lines of Therapy, IRC Review
# [3] = P65 % NUCLEAR STAINING: ≦5%, 5 Prior Lines of Therapy, IRC Review
# [4] = P65 % NUCLEAR STAINING: ≦5%, Prior Rituximab Therapy, IRC Review
# [5] = P65 % NUCLEAR STAINING: ≦5%, ≦65 years old, IRC Review
# [6] = P65 % POSITIVE CYTOPLASMIC SIGNAL: >90%, 1 Prior Line of Therapy, IRC Review
# [7] = P65 % POSITIVE CYTOPLASMIC SIGNAL: >90%, No Subgroup, IRC Review
# [8] = P65 % POSITIVE CYTOPLASMIC SIGNAL: >90%, White, IRC Review
# [9] = P65 % POSITIVE CYTOPLASMIC SIGNAL: >90%, ≦65 years old, IRC Review
# [10] = P65 INTENSITY CYTOPLASMIC SIGNAL: ≦1+, Ann Arbor Stage III, IRC Review
# [11] = P65 INTENSITY CYTOPLASMIC SIGNAL: ≧2+, 1 Prior Line of Therapy, IRC Review
# [12] = P65 INTENSITY CYTOPLASMIC SIGNAL: ≧2+, ≦65 years old, IRC Review
# [13] = PSMB1/A171S: G/G, >1 year since last anti-lymphoma treatment, IRC Review
# [14] = PSMB1/A171S: G/G, No Subgroup, IRC Review
# [15] = PSMB1/A171S: G/G, ≦65 years old, IRC review
# [16] = PSMB1/I208N: T/T, >1 year since last anti-lymphoma treatment, IRC Review
# [17] = PSMB1/I208N: T/T, No Subgroup, IRC Review
# [18] = PSMB1/I208N: T/T, ≦65 years old, IRC review
# [19] = PSMB1/P11A: C/G, European Union, IRC Review
# [20] = PSMB1/P11A: C/G, No Subgroup, IRC Review
# [21] = PSMB1/P11A: C/G, ≦65 years old, IRC review
# [22] = PSMB1/P11A: G/G, ≦65 years old, IRC Review
# [23] = PSMB1/P193L: C/C, >1 year since last anti-lymphoma treatment, IRC Review
# [24] = PSMB1/P193L: C/C, ≦65 years old, IRC review
# [25] = PSMB2/E49X: G/G, >1 year since last anti-lymphoma treatment, IRC Review
# [26] = PSMB2/E49X: G/G, ≦65 years old, IRC review
# [27] = PSMB2/G187V: G/G, >1 year since last anti-lymphoma treatment, IRC Review
# [28] = PSMB2/G187V: G/G, ≦65 years old, IRC review
# [29] = PSMB2/L159F: C/C, >1 year since last anti-lymphoma treatment, IRC Review
# [30] = PSMB2/L159F: C/C, ≦65 years old, IRC review
# [31] = PSMB5/L206M: C/C, >1 year since last anti-lymphoma treatment, IRC Review
# [32] = PSMB5/L206M: C/C, ≦65 years old, IRC review
# [33] = PSMB5/R24C: C/C, >1 year since last anti-lymphoma treatment, IRC Review
# [34] = PSMB5/R24C: C/C, ≦65 years old, IRC review
# [35] = PSMB6/A234D: C/C, >1 year since last anti-lymphoma treatment, IRC Review
# [36] = PSMB6/A234D: C/C, ≦65 years old, IRC review
# [37] = PSMB6/P107A: C/C, >1 year since last anti-lymphoma treatment, IRC Review
# [38] = PSMB6/P107A: C/C, ≦65 years old, IRC review
# [39] = PSMB8/G8R: G/G, >1 year since last anti-lymphoma treatment, IRC Review
# [40] = PSMB8/G8R: G/G, ≦65 years old, IRC review
# [41] = PSMB8/R141C: C/C, >1 year since last anti-lymphoma treatment, IRC Review
# [42] = PSMB8/R141C: C/C, ≦65 years old, IRC review
# [43] = PSMB8/V182M: G/G, >1 year since last anti-lymphoma treatment, IRC review
# [44] = PSMB8/V182M: G/G, ≦65 years old, IRC review
# [45] = PSMB9/G9E: G/G, >1 year since last anti-lymphoma treatment, IRC review
# [46] = PSMB9/G9E: G/G, ≦65 years old, IRC review
# [47] = PSMB9/V32I: C/C, >1 year since last anti-lymphoma treatment, IRC review
# [48] = PSMB9/V32I: C/C, High Tumor Burden, IRC Review
# [49] = PSMB9/V32I: C/C, ≦65 years old, IRC review
substance,measurement,setting,value
rituximab,"Treatment Free Interval, Median","P27 SIGNAL INTENSITY: ≧2+, Prior Rituximab Therapy, IRC Review",272
same,"Treatment Free Interval, Evt/N",[1],54/79
same,"Treatment Free Interval, Median",[1],406
same,"Treatment Free Interval, Evt/N",[2],7/9
same,"Treatment Free Interval, Median",[2],85
same,"Treatment Free Interval, Evt/N",[3],3/3
same,"Treatment Free Interval, Median",[3],95
same,"Treatment Free Interval, Evt/N",[4],16/21
same,"Treatment Free Interval, Median",[4],93
same,"Treatment Free Interval, Evt/N",[5],19/29
same,"Treatment Free Interval, Median",[5],234
same,"Treatment Free Interval, Evt/N",[6],59/89
same,"Treatment Free Interval, Median",[6],409
same,"Treatment Free Interval, Evt/N",[7],129/204
same,"Treatment Free Interval, Median",[7],363
same,"Treatment Free Interval, Evt/N",[8],113/179
same,"Treatment Free Interval, Median",[8],363
same,"Treatment Free Interval, Evt/N",[9],103/154
same,"Treatment Free Interval, Median",[9],343
same,"Treatment Free Interval, Evt/N",[10],10/11
same,"Treatment Free Interval, Median",[10],119
same,"Treatment Free Interval, Evt/N",[11],54/85
same,"Treatment Free Interval, Median",[11],427
same,"Treatment Free Interval, Evt/N",[12],101/152
same,"Treatment Free Interval, Median",[12],343
same,"Treatment Free Interval, Evt/N",[13],98/165
same,"Treatment Free Interval, Median",[13],547
same,"Treatment Free Interval, Evt/N",[14],173/276
same,"Treatment Free Interval, Median",[14],406
same,"Treatment Free Interval, Evt/N",[15],130/198
same,"Treatment Free Interval, Median",[15],344
same,"Treatment Free Interval, Evt/N",[16],98/165
same,"Treatment Free Interval, Median",[16],547
same,"Treatment Free Interval, Evt/N",[17],173/276
same,"Treatment Free Interval, Median",[17],406
same,"Treatment Free Interval, Evt/N",[18],130/198
same,"Treatment Free Interval, Median",[18],344
same,"Treatment Free Interval, Evt/N",[19],34/49
same,"Treatment Free Interval, Median",[19],309
same,"Treatment Free Interval, Median","PSMB1/P11A: C/G, Female, IRC Review",406
same,"Treatment Free Interval, Evt/N",[20],78/127
same,"Treatment Free Interval, Median",[20],409
same,"Treatment Free Interval, Evt/N",[21],63/96
same,"Treatment Free Interval, Median",[21],406
same,"Treatment Free Interval, Evt/N",[22],21/25
same,"Treatment Free Interval, Median",[22],269
same,"Treatment Free Interval, Evt/N",[23],98/165
same,"Treatment Free Interval, Median",[23],547
same,"Treatment Free Interval, Median","PSMB1/P193L: C/C, No Subgroup, IRC Review",406
same,"Treatment Free Interval, Evt/N",[24],130/198
same,"Treatment Free Interval, Median",[24],344
same,"Treatment Free Interval, Evt/N",[25],98/165
same,"Treatment Free Interval, Median",[25],547
same,"Treatment Free Interval, Evt/N",[26],130/198
same,"Treatment Free Interval, Median",[26],344
same,"Treatment Free Interval, Evt/N",[27],98/165
same,"Treatment Free Interval, Median",[27],547
same,"Treatment Free Interval, Evt/N",[28],130/198
same,"Treatment Free Interval, Median",[28],344
same,"Treatment Free Interval, Evt/N",[29],98/165
same,"Treatment Free Interval, Median",[29],547
same,"Treatment Free Interval, Evt/N",[30],130/198
same,"Treatment Free Interval, Median",[30],344
same,"Treatment Free Interval, Evt/N",[31],98/165
same,"Treatment Free Interval, Median",[31],547
same,"Treatment Free Interval, Evt/N",[32],130/198
same,"Treatment Free Interval, Median",[32],344
same,"Treatment Free Interval, Evt/N",[33],81/137
same,"Treatment Free Interval, Median",[33],507
same,"Treatment Free Interval, Evt/N",[34],113/170
same,"Treatment Free Interval, Median",[34],344
same,"Treatment Free Interval, Evt/N",[35],98/165
same,"Treatment Free Interval, Median",[35],547
same,"Treatment Free Interval, Evt/N",[36],130/198
same,"Treatment Free Interval, Median",[36],344
same,"Treatment Free Interval, Evt/N",[37],95/159
same,"Treatment Free Interval, Median",[37],561
same,"Treatment Free Interval, Evt/N",[38],125/189
same,"Treatment Free Interval, Median",[38],363
same,"Treatment Free Interval, Evt/N",[39],91/155
same,"Treatment Free Interval, Median",[39],562
same,"Treatment Free Interval, Evt/N",[40],123/189
same,"Treatment Free Interval, Median",[40],344
same,"Treatment Free Interval, Evt/N",[41],98/165
same,"Treatment Free Interval, Median",[41],547
same,"Treatment Free Interval, Evt/N",[42],130/198
same,"Treatment Free Interval, Median",[42],344
same,"Treatment Free Interval, Evt/N",[43],98/165
same,"Treatment Free Interval, Median",[43],547
same,"Treatment Free Interval, Evt/N",[44],130/198
same,"Treatment Free Interval, Median",[44],344
same,"Treatment Free Interval, Evt/N",[45],97/163
same,"Treatment Free Interval, Median",[45],547
same,"Treatment Free Interval, Evt/N",[46],129/196
same,"Treatment Free Interval, Median",[46],344
same,"Treatment Free Interval, Evt/N",[47],96/160
same,"Treatment Free Interval, Median",[47],507
same,"Treatment Free Interval, Evt/N",[48],106/142
same,"Treatment Free Interval, Median",[48],234
same,"Treatment Free Interval, Evt/N",[49],127/192
same,"Treatment Free Interval, Median",[49],344
